Article PMC6403800 (Polymers, 2018)
Like-named read-outs stand apart in the source and are kept apart here. Peptide text beside a SMILES is read from it.

Legend:
[1] = biological target: T1, α-hemolysin (α-HL) nanopore (Staphylococcus aureus, UniProt P09616)
[2] = biological target: T1, α-hemolysin (α-HL) nanopore; experiment: biochemical; type: binding; details: for kon: extrapolated to ΔV→0 by fit kon(ΔV)=kon(0)exp(aΔV)

T1 sequence (P09616 27-319 limits assumed): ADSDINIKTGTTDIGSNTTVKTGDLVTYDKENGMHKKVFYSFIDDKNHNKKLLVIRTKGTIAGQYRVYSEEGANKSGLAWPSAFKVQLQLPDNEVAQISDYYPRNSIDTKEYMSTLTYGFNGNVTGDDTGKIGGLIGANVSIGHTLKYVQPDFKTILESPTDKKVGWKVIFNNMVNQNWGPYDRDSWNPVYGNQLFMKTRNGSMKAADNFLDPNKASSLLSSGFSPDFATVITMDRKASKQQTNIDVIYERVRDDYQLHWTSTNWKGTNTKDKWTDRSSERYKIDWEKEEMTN

Compound	relative blockade extent ΔIblock,1/Iopen, comparison in words [1]	relative blockade extent ΔIblock,1/Iopen (residual current I1) ([1]; pH 7)	relative blockade extent ΔIblock,2/Iopen (residual current I2) ([1]; pH 7)	dissociation rate constant koff, comparison in words ([2]; pH 7)	relative blockade extent ΔIblock,1/Iopen (residual current I1) ([1]; deeper blockade sub-state I1, Fig. 1: 20 µM trans-added, ΔV = +100 mV, 2 M KCl, 10 mM HEPES, pH 7, ~23 °C, kind of spread not stated)	relative blockade extent ΔIblock,2/Iopen (residual current I2) ([1]; shallower blockade sub-state I2, Fig. 1: 20 µM trans-added, ΔV = +100 mV, 2 M KCl, 10 mM HEPES, pH 7, ~23 °C, kind of spread not stated)	dissociation rate, cis vs trans entry with preserved axial orientation, in words ([2]; at +ΔV (Figure 7a,d) and at −ΔV (Figure 7b,c), 30 μM)	dissociation, comparison of polarity in words ([2]; cis-added, +ΔV vs −ΔV (Figure 7c,d), 30 μM)	association rates trans vs cis side, in words ([2]; high voltages (|ΔV| > 100 mV), 30 μM)	association rate kon, ranking by addition side and voltage polarity ([2]; high voltages (|ΔV| > 100 mV), 30 μM peptide, cis or trans addition)	kon ([2]; pH 7, read-out: near equilibrium association rate constant kon(0), cis-added, +ΔV, 30 μM peptide, 2 M KCl, 10 mM HEPES, pH 7, ~23 °C)	kon ([2]; pH 7, read-out: near equilibrium association rate constant kon(0), cis-added, −ΔV, 30 μM peptide, 2 M KCl, 10 mM HEPES, pH 7, ~23 °C)	kon ([2]; pH 7, read-out: near equilibrium association rate constant kon(0), trans-added, +ΔV, 30 μM peptide, 2 M KCl, 10 mM HEPES, pH 7, ~23 °C)	kon ([2]; pH 7, read-out: near equilibrium association rate constant kon(0), trans-added, −ΔV, 30 μM peptide, 2 M KCl, 10 mM HEPES, pH 7, ~23 °C)	dissociation rate constant koff, comparison of polarity in words ([2]; trans-added, +ΔV vs −ΔV (Figure 7a,b), 30 μM)	association rate constant kon, comparison in words ([2]; trans-added, Pe6 vs Pe4, voltage-dependent (Figure 4a,c), 2 M KCl, 10 mM HEPES, pH 7, ~23 °C)	trapping time inside α-HL, comparison in words ([2]; trans-added, as the positive voltage increases (+80, +90, +100 mV), Pe6 vs Pe4, 2 M KCl, pH 7)	association rate, comparison of polarity in words ([2]; trans-added, relatively low transmembrane potential values (Figure 6a,b insets), 30 μM)	near equilibrium kon(0), ranking by addition side and voltage polarity ([2]; ΔV→0, cis or trans addition, 30 μM peptide)
Ac–(R)12–(I)6–(E)12–NH2 [Pe4]	slightly higher extent of relative blockade	0.93 ± 5.1 × 10^−4	0.83 ± 0.004	slightly faster dissociation step	–	–	–	–	–	–	–	–	–	–	–	–	–	–	–
CC(=O)N[C@@H](CCCNC(=N)N)C(=O)N[C@@H](CCCNC(=N)N)C(=O)N[C@@H](CCCNC(=N)N)C(=O)N[C@@H](CCCNC(=N)N)C(=O)N[C@@H](CCCNC(=N)N)C(=O)N[C@@H](CCCNC(=N)N)C(=O)N[C@@H](CCCNC(=N)N)C(=O)N[C@@H](CCCNC(=N)N)C(=O)N[C@@H](CCCNC(=N)N)C(=O)N[C@@H](CCCNC(=N)N)C(=O)N[C@@H](CCCNC(=N)N)C(=O)N[C@@H](CCCNC(=N)N)C(=O)N[C@@H](CO)C(=O)N[C@@H](CO)C(=O)N[C@@H](CO)C(=O)N[C@@H](CO)C(=O)N[C@@H](CO)C(=O)N[C@@H](CO)C(=O)N[C@@H](CCC(=O)O)C(=O)N[C@@H](CCC(=O)O)C(=O)N[C@@H](CCC(=O)O)C(=O)N[C@@H](CCC(=O)O)C(=O)N[C@@H](CCC(=O)O)C(=O)N[C@@H](CCC(=O)O)C(=O)N[C@@H](CCC(=O)O)C(=O)N[C@@H](CCC(=O)O)C(=O)N[C@@H](CCC(=O)O)C(=O)N[C@@H](CCC(=O)O)C(=O)N[C@@H](CCC(=O)O)C(=O)N[C@@H](CCC(=O)O)C(N)=O [Pe6, Ac–(R)12–(S)6–(E)12–NH2] (Ac-RRRRRRRRRRRRSSSSSSEEEEEEEEEEEE-NH2)	–	–	–	–	0.91 ± 0.003	0.83 ± 0.002	within the same order of magnitude	dissociates faster at +ΔVs (Figure 7d) than −ΔVs	the association rates from the trans side are, in general, larger than peptide association from the cis side	koncis;−ΔV<koncis;+ΔV<kontrans;+ΔV<kontrans;−ΔV	63 ± 35.1 M⁻¹ s⁻¹	26.1 ± 8.9 M⁻¹ s⁻¹	83500 M⁻¹ s⁻¹	1200 M⁻¹ s⁻¹	larger at +ΔVs than at −ΔVs	almost one order of magnitude larger than that of the isoleucine-containing peptide (Pe4)	being trapped longer than Pe4 peptide inside the α-HL, as the voltage increases	associate faster to the nanopore at +ΔVs (Figure 6a, inset) than −ΔV s	koncis;−ΔV(0)<koncis;+ΔV(0)<kontrans;−ΔV(0)<kontrans;+ΔV(0)
